Assay results: patent US20260184687A1, “DIHYDROINDENE DERIVATIVES AS MALT1 INHIBITORS” (C4X Discovery Limited, priority 2022, published 2026)

Assays:
FL hMALT1 enzyme = molecular target: T1, FL hMALT1 enzyme (Homo sapiens, UniProt Q9UDY8); assay: biochemical;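 further: Cell-free protease assay: enzyme preincubated with compound 30 min at room temperature, then cleavage of fluorogenic Ac-LVSR-AMC substrate (100 µM) tracked by fluorescence (ex 360/em 460 nm)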
T1 sequence (Q9UDY8 1-824): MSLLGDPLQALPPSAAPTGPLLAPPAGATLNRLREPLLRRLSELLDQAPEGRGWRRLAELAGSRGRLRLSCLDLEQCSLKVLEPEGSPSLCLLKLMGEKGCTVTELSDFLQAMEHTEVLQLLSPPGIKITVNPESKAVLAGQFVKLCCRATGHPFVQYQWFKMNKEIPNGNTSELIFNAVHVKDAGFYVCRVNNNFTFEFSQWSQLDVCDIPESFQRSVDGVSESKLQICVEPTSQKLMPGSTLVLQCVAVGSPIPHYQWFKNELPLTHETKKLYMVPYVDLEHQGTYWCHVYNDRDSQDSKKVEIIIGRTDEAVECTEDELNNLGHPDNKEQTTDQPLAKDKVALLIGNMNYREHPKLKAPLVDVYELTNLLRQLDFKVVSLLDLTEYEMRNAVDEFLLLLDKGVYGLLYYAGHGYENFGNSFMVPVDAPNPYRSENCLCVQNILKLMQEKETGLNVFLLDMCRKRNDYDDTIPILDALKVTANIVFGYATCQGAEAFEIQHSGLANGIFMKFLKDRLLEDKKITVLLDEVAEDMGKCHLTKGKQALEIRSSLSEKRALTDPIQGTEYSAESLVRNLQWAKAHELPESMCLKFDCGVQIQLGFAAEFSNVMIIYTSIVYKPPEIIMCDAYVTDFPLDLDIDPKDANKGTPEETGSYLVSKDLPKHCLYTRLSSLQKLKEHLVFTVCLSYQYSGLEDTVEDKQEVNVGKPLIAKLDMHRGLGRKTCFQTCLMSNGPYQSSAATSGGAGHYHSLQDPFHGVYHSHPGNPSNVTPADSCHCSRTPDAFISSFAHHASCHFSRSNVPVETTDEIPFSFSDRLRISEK
Method: MALT1 protease activity was assessed in vitro by measuring the cleavage of a fluorogenic tetrapeptide substrate.
For a higher sensitivity assay, commercially available FL hMALT1 enzyme (Abcam, 1-10 nM) was incubated with substrate (Ac-LVSR-AMC, 100 μM) in reaction buffer comprising 50 mM HEPES (pH7.0), 25 mM KCl, 0.1% (v/v) CHAPS, 1 mM TCEP and 0.7 M sodium citrate.
Test compounds dissolved in DMSO were dispensed into assay plates (384-well, black, shallow ProxiPlates). 7 μl enzyme solution was added and incubated at room temperature for 30 minutes to allow compound binding to occur. 2 μl substrate solution was then added and the fluorescence (excitation 360 nm, emission 460 nm) read every 15 minutes using a suitable plate reader. Final assay DMSO concentration was 1%. […] IC50 values were calculated using GraphPad Prism using a 4-parameter non-linear regression curve fit.

[1] = molecular target: MALT1-GS-Ub (6-His-hMALT-1 residues 339-715 fused to ubiquitin) (Homo sapiens, UniProt Q9UDY8); assay: biochemical;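 further: in vitro MALT1 protease assay: enzyme preincubated with compound 30 min at room temperature, then cleavage of fluorogenic Ac-LVSR-AMC substrate (100 µM) followed by fluorescence every 15 min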
[2] = test system: IL-2 release from stimulated Jurkat cells; assay: Human IL-2 Release Phenotypic Assay (Assay 3); format: cell-based; settings: Jurkat cells (clone E6-1), 200 ng/mL PMA + 300 ng/mL ionomycin, IL-2 by ELISA
Outline: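 IC50 values were fitted by 4-parameter non-linear regression to IL-2 release from Jurkat E6-1 cells. Those cells were stimulated for 48 h with PMA (200 ng/mL) plus ionomycin (300 ng/mL) after a 30-min compound pre-incubation at half-log doses in 0.5% DMSO. Cells had been plated at 50 000/well overnight at 37° C.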

MALT1-GS-Ub (6-His-hMALT-1 residues 339-715 fused to ubiquitin), sequence (Q9UDY8 with tags, fused parts or gaps limits assumed): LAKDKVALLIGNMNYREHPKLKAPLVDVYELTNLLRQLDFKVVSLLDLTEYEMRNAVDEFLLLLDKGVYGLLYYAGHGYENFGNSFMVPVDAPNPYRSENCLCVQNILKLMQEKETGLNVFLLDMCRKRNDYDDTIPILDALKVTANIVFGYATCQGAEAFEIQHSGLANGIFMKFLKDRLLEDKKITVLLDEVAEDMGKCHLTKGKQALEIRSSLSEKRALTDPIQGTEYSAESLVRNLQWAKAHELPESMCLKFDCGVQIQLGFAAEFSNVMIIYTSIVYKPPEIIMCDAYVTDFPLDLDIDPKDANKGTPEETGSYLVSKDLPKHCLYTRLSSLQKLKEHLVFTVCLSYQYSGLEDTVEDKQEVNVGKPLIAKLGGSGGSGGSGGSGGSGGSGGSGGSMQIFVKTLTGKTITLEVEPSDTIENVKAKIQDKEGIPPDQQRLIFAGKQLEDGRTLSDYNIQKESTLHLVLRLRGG

Row | IC50 (FL hMALT1 enzyme) | IC50 [1] | IC50 ([2]; 48 hours) | IC50 ([2]; Homo sapiens, Jurkat, 48 h) | Structure (SMILES)
1 | 39 nM | 380 nM | 1160 nM | – | CN(C(=O)C1CCS(=O)(=O)CC1)[C@@H](c1ccc(NC2Cc3ccccc3C2(C)C)nc1)C(F)(F)F (single isomer, unassigned) [Example 36]
2 | 260 nM | 360 nM | 2480 nM | – | COCCC(=O)N(C)[C@@H](c1ccc(NC2Cc3ccccc3C2(C)C)cc1)C(F)(F)F (single isomer, unassigned) [Example 33]
3 | 810 nM | 430 nM | – | 3500 nM | CN(C(=O)C1CCNCC1)[C@@H](c1ccc(NC2Cc3ccccc3C2)cc1)C(F)(F)F (single isomer, unassigned) [Example 70]
4 | 700 nM | 360 nM | 910 nM | – | CN(C(=O)c1cocn1)[C@@H](c1ccc(NC2Cc3ccccc3C2(C)C)cc1)C(F)(F)F (single isomer, unassigned) [Example 26]
5 | 7 nM | 420 nM | 370 nM | – | CNC(=O)N1CC(C(=O)N(C)[C@@H](c2ccc(NC3Cc4ccccc4C3(C)C)cc2)C(F)(F)F)C1 (single isomer, unassigned) [Example 73]
6 | 130 nM | 140 nM | – | 1560 nM | CN(C(=O)c1cc[nH]c(=O)c1)C(c1ccc(NC2Cc3ccccc3C2(C)C)cn1)C(F)(F)F (single isomer, unassigned) [Example 96, N-(1-(5-((1,1-Dimethyl-2,3-dihydro-1H-inden-2-yl)amino)pyridin-2-yl)-2,2,2-trifluoroethyl)-N-methyl-2-oxo-1,2-dihydropyridine-4-carboxamide]
7 | 640 nM | 580 nM | 1300 nM | – | CN1CC(C(=O)N(C)C(c2ccc(NC3Cc4ccccc4C3(C)C)nc2)C(F)(F)F)C1 (single isomer, unassigned) [Example 95, N-(1-(6-((1,1-Dimethyl-2,3-dihydro-1H-inden-2-yl)amino)pyridin-3-yl)-2,2,2-trifluoroethyl)-N,1-dimethylazetidine-3-carboxamide]
8 | 370 nM | 250 nM | – | 820 nM | CN1CC(C(=O)N(C)[C@@H](c2ccc(NC3Cc4ccccc4C3(C)C)cc2)C(F)(F)F)C1 (single isomer, unassigned) [Example 75]
9 | 14 nM | 150 nM | 93 nM | – | CN(C(=O)C1CCS(=O)(=O)CC1)[C@@H](c1ccc(NC2Cc3ccc(Cl)cc3C2)cc1)C(F)(F)F (single isomer, unassigned) [Example 56]
10 | 130 nM | 200 nM | 5680 nM | – | COCCC(=O)N(C)[C@@H](c1ccc(NC2Cc3ccccc3C2(C)C)cc1)C(F)(F)F (single isomer, unassigned) [Example 32]
11 | 460 nM | 470 nM | 2990 nM | – | CC1(C)c2ccccc2CC1Nc1ccc([C@H](NC(=O)C2CCS(=O)(=O)CC2)C(F)(F)F)cc1 (single isomer, unassigned) [Example 82]
12 | 450 nM | 290 nM | – | 1730 nM | CN(C(=O)N1CCC(O)CC1)[C@@H](c1ccc(NC2Cc3ccccc3C2(C)C)cc1)C(F)(F)F (single isomer, unassigned) [Example 22]
13 | 690 nM | 1000 nM | 3040 nM | – | CN1CC(C(=O)N(C)C(c2ccc(NC3Cc4ccccc4C3(C)C)nc2)C(F)(F)F)C1 (single isomer, unassigned) [Example 93, N-(1-(6-((1,1-Dimethyl-2,3-dihydro-1H-inden-2-yl)amino)pyridin-3-yl)-2,2,2-trifluoroethyl)-N,1-dimethylazetidine-3-carboxamide]
14 | 210 nM | 270 nM | 2240 nM | – | CN([C@@H](c1ccc(NC2Cc3ccccc3C2(C)C)cc1)C(F)(F)F)S(=O)(=O)C1CC1 (single isomer, unassigned) [Example 80]
15 | 62 nM | 200 nM | 260 nM | – | CN(C(=O)c1cc[nH]c(=O)c1)[C@@H](c1ccc(NC2Cc3ccccc3C2(C)C)cc1)C(F)(F)F (single isomer, unassigned) [Example 21]
16 | 110 nM | 170 nM | 2350 nM | – | CN(C(=O)CCN1CCCC1=O)[C@@H](c1ccc(NC2Cc3ccccc3C2(C)C)cc1)C(F)(F)F (single isomer, unassigned) [Example 47]
17 | 370 nM | 650 nM | 1710 nM | – | CN(C(=O)C1CNC1)C(c1ccc(NC2Cc3ccccc3C2(C)C)nc1)C(F)(F)F (single isomer, unassigned) [Example 88, N-(1-(6-((1,1-Dimethyl-2,3-dihydro-1H-inden-2-yl)amino)pyridin-3-yl)-2,2,2-trifluoroethyl)-N-methylazetidine-3-carboxamide]
18 | 4 nM | 120 nM | 97 nM | – | CN(C(=O)C1CCS(=O)(=O)CC1)[C@@H](c1ccc(NC2Cc3ccc(Cl)cc3C2(C)C)cc1)C(F)(F)F (single isomer, unassigned) [Example 151]
19 | 62 nM | 150 nM | 4040 nM | – | CC(=O)N1CC(F)(C(=O)N(C)[C@@H](c2ccc(NC3Cc4ccccc4C3(C)C)cc2)C(F)(F)F)C1 (single isomer, unassigned) [Example 43]
20 | 290 nM | 180 nM | – | 490 nM | CN(C(=O)N1CCOCC1)[C@@H](c1ccc(N[C@H]2Cc3ccccc3C2(C)C)cc1)C(F)(F)F (single isomer, unassigned) [Example 12]
21 | 16 nM | 210 nM | – | 560 nM | CC1c2ccccc2C(C)C1Nc1ccc([C@H](N(C)C(=O)C2CCS(=O)(=O)CC2)C(F)(F)F)cc1 (stereo partly drawn) [Example 38, N-((1S)-1-(4-((1,3-Dimethyl-2,3-dihydro-1H-inden-2-yl)amino)phenyl)-2,2,2-trifluoroethyl)-N-methyltetrahydro-2H-thiopyran-4-carboxamide 1,1-dioxide]
22 | 68 nM | 190 nM | 820 nM | – | CC(=O)N1CC(C(=O)N(C)[C@@H](c2ccc(NC3Cc4ccccc4C3(C)C)cc2)C(F)(F)F)C1 (single isomer, unassigned) [Example 7]
23 | 180 nM | 320 nM | 640 nM | – | CN(C(=O)C1CNC1)C(c1ccc(NC2Cc3ccccc3C2(C)C)cn1)C(F)(F)F (single isomer, unassigned) [Example 84, N-(1-(5-((1,1-Dimethyl-2,3-dihydro-1H-inden-2-yl)amino)pyridin-2-yl)-2,2,2-trifluoroethyl)-N-methylazetidine-3-carboxamide]
24 | 7 nM | 140 nM | – | 430 nM | CN(C(=O)C1CCS(=O)(=O)CC1)[C@@H](c1ccc(NC2Cc3ccccc3C2(C)C)cc1)C(F)(F)F (single isomer, unassigned) [Example 1]
25 | 250 nM | 140 nM | 2250 nM | – | CN(C(=O)c1cnco1)[C@@H](c1ccc(NC2Cc3ccccc3C2(C)C)cc1)C(F)(F)F (single isomer, unassigned) [Example 5]
26 | 280 nM | 500 nM | – | 870 nM | CN1CC(C(=O)N(C)C(c2ccc(NC3Cc4ccccc4C3(C)C)cn2)C(F)(F)F)C1 (single isomer, unassigned) [Example 92, N-(1-(5-((1,1-Dimethyl-2,3-dihydro-1H-inden-2-yl)amino)pyridin-2-yl)-2,2,2-trifluoroethyl)-N,1-dimethylazetidine-3-carboxamide]
27 | 78 nM | 450 nM | 5970 nM | – | CN(C(=O)CN1CC(=O)NC1=O)[C@@H](c1ccc(NC2Cc3ccccc3C2(C)C)cc1)C(F)(F)F (single isomer, unassigned) [Example 67]
28 | 180 nM | 190 nM | 400 nM | – | CN(C(=O)c1cocn1)[C@@H](c1ccc(NC2Cc3ccccc3C2(C)C)cc1)C(F)(F)F (single isomer, unassigned) [Example 27]
29 | 180 nM | 240 nM | – | 730 nM | CN(C(=O)CN1CCCC1=O)[C@@H](c1ccc(NC2Cc3ccccc3C2(C)C)cc1)C(F)(F)F (single isomer, unassigned) [Example 45]
30 | 50 nM | 130 nM | – | 1190 nM | CN(C(=O)CO)[C@@H](c1ccc(NC2Cc3ccccc3C2(C)C)cc1)C(F)(F)F (single isomer, unassigned) [Example 31]
